The results in this text go back to US20220211821A1, “COMPOSITION FOR PREVENTING OR TREATING OBESITY, COMPRISING PHOSPHOLIPASE A2 AS ACTIVE INGREDIENT” (UNIVERSITY-INOUSTRY COOPERATION GROUP OF KYUNG HEE …, priority 2019, published 2022).

In data set [1] the test system is mice with HFD-induced obesity. Put plainly: Adipose tissue weight and body weight of mice with HFD-induced obesity. The format is in vivo, C57BL/6 mice. The method, then: (§1) Male C57BL/6 mice (5 weeks old; weight 18-20 g) and CD206−/− mice (B6.129P2-MRC1tm1Mnz/J) were purchased from Jackson Laboratory (Bar Harbor, Me.). After acclimation for one week, the mice were fed a normal diet (ND, 10 kcal %) or a high-fat diet (HFD, 60 kcal %) for 15 weeks. Thereafter, the mice were intraperitoneally injected with PBS or bvPLA2 (0.5 mg/kg) starting on week 5 and continuing for 11 weeks.
The obesity amelioration effect of bvPLA2 was evaluated through changes in adipose tissue weight and body weight of mice with HFD-induced obesity.
More specifically, the […] mice were fed ND or HFD for 15 weeks. After 4 weeks of ND or HFD feeding, the mice were injected with PLA2 or PBS, starting on week 5 (FIG. 1A). Thereafter, the adipose tissue and body weight were measured according to the injection or non-injection of bvPLA2.

In data set [2] the test system is CD206-deficient (CD206-/-) mice lacking the mannose receptor. Put plainly: Body weight and adipose tissue weight of CD206-deficient mice on HFD. As to conditions: HFD+PLA2 vs HFD group. The format is in vivo. The method, then:
as §1
In order to investigate the immunoregulatory effect of bvPLA2, CD206-deficient (CD206−/−) mice lacking the mannose receptor were used.
More specifically, the body weight and adipose tissue weight of CD206−/− mice were measured by way of the same method as the above experimental schedule (FIG. 1A).

Data set [3] concerns obesity-induced mice, regulatory T cell depletion. In words: Body weight of obesity-induced mice with regulatory T cell depletion (anti-mouse CD25 PC61) or rat IgG control. Type of data set: in vivo. As for the experimental part: Anti-mouse CD25 (clone: PC61) was produced from hybridomas obtained from the American Type Culture Collection (ATCC; Manassas, Va., USA), and the mice were intraperitoneally injected with anti-mouse CD25 or rat IgG (Sigma-Aldrich) every 3 days for 11 weeks.
In order to investigate the correlation between bvPLA2 and regulatory T cells, regulatory T cell depletion was performed by injecting anti-mouse CD25 antibody (clone PC61) into mice every 3 days. Rat IgG was used as a control.

For data set [4], the system named is liver and kidney tissues from the mice. Put plainly: H&E staining of liver and kidney: HFD-induced hepatic steatosis and kidney damage. Type of data set: in vivo. The method, then:
(§2) Liver and kidney tissues were fixed in 4% paraformaldehyde overnight, dehydrated, embedded in paraffin, and sectioned to a thickness of 4 μm. The sections were deparaffinized with xylene and then hydrated again with 100%, 90%, 80%, and 70% ethanol. The hydrated sections were washed with tap water and stained with a hematoxylin solution for 5 minutes. Thereafter, the stained sections were immersed in 1% acid alcohol, and then stained again in an eosin solution for 3 minutes. Thereafter, for mounting, the stained sections were dehydrated with 70%, 80%, 90%, or 100% ethanol […].
In order to investigate whether PLA2 alleviated HFD-induced hepatic steatosis and kidney inflammation, liver and kidney tissues from the mice were H&E stained.
Next, the glomerular diameter indicating an early indicator of diabetic nephropathy caused by kidney damage was investigated.

The subject of data set [5] is HFD-induced metabolic dysfunction. Put plainly: Serum/plasma levels of liver, kidney and metabolic markers by group. Type of data set: in vivo, mice. As for the experimental part: The effects of bvPLA2 on liver and kidney functions were investigated.
More specifically, serum levels of alanine aminotransferase (ALT), aminotransferase (AST), blood urea nitrogen (BUN), and […] (Crea) were measured for each group.
In order to investigate the effect of bvPLA2 on metabolic syndrome, the triglyceride (TG), glucose (GLU), high-density lipoprotein cholesterol (HDL-C), and low-density lipoprotein cholesterol (LDL-C) levels were analyzed for each group.
In addition, plasma insulin and leptin levels were analyzed for each group.

For data set [6], the system named is pro-inflammatory macrophages in WAT. Put plainly: H&E histological examination of macrophage infiltration in WAT. The format is in vivo, mice. To be noted: bvPLA2-treated HFD+PLA2 group vs HFD group. As for the experimental part: as §2
Since obesity is characterized by the localization of crown-like structures (CLS), which are formed by pro-inflammatory macrophages surrounding dead adipocytes in AT28, H&E histological examination was performed to investigate whether bvPLA2 inhibited the macrophage infiltration in WAT.

Data set [7] relates to white adipose tissue (WAT). In words: Quantitative real-time PCR of M1/M2 markers and adipogenic factors in white adipose tissue. The format is in vivo, mice. The method, then:
Total RNA was isolated from white adipose tissue (WAT) samples by using an easy-BLUE RNA extraction kit (iNtRON Biotechnology, Korea), and cDNA was synthesized using Cyclescript reverse transcriptase (Bioneer, Korea). The synthesized cDNA was subjected to quantitative real-time PCR (95° C. for 15 sec, 55° C. for 10 sec, and 72° C. for 10 sec) with SensiFAST SYBR no-Rox kit (Bioline, Korea), and each reaction was performed in triplicate. The primer sequences for the experiment were as follows:
The changes in macrophage phenotypes were analyzed by quantitative real-time PCR analysis.
More specifically, the expressions of TNF-α, IL-1β, and IL-12a were measured to investigate the effect of bvPLA2 on M1-related markers.
In addition, the expressions of the M2-related markers IL-4, CD206, and Ym1 were measured.
In addition, the expressions of PPARγ, C/EBPα, and UCP-1, which are markers related with lipid accumulation and adipogenesis, were measured.
For orientation: Quantitative PCR measures a nucleic acid by following its amplification.

The subject of another data set is mice of the HFD group. In words: Comparison with mellitin: body weight changes in HFD mice. Type of data set: in vivo. To be noted: 0.5 mg/kg intraperitoneally for 16 weeks, vs control group (PBS). As for the experimental part:
In order to investigate a component having an excellent obesity inhibitory effect among the components of bee venom, mellitin, which is the most abundant in bee venom, was compared with bvPLA2, which is PLA2 derived from bee venom.
More specifically, the mice of the ND and HFD groups were intraperitoneally administered with PBS, mellitin, and bvPLA2 at 0.5 mg/kg each for 16 weeks, and then the body weight changes were compared every day.

Where [8] appears, read: bvPLA2-treated HFD group vs HFD group.
Where [9] appears, read: serum, HFD+PLA2 group vs HFD group.
Where [10] appears, read: M1-related marker, HFD+PLA2 group vs HFD group.
Where [11] appears, read: M2-related marker, HFD-PLA2 group vs HFD group.
Setting [12] is: lipid accumulation/adipogenesis marker, HFD+PLA2 group vs HFD group.

For the substance phospholipase A2 [bvPLA2], in data set [1] (HFD+PLA2 group vs HFD group), the “epididymal WAT weight” value is reported as “greatly reduced” and the “inguinal WAT weight” value is “greatly reduced”. Also, in data set [1] (HFD+PLA2 group vs HFD group without PLA2, 0.5 mg/kg intraperitoneally from week 5), the body weight entry is given as “significant reduction in body weight”. Also, the food uptake result in data set [1] (all groups (ND, HFD, with or without PLA2)) is “no food uptake change was observed”. Further, in data set [2], the adipose tissue weight entry is “no significant changes” and the body weight result is recorded as “no significant changes”. Moreover, the body weight entry in data set [3] (IgG+PLA2 obesity-induced group vs IgG-only obesity-induced group) is listed as “significantly reduced”. For the same substance, the body weight result in data set [3] (PC61+PLA2 group vs PC61-treated group) was “markedly reduced”. In data set [4] (HFD+PLA2 group), the “kidney hypertrophy (increased glomerular diameter)” value is “no kidney hypertrophy”. Besides, in data set [4] (ND+PLA2 group), the “kidney hypertrophy (increased glomerular diameter)” value is recorded as “no kidney hypertrophy”; the “size and weight of the liver (lipid droplet accumulation and hepatomegaly)” value is recorded as “no influence was observed”. Further, in data set [4] (setting [8]), the “size and weight of the liver (lipid droplet accumulation and hepatomegaly)” value is on record as “attenuated”. Further, in data set [5] (HFD+PLA2 group vs HFD group), the plasma insulin level result is on record as “significantly reduced” and the plasma leptin level result is on record as “significantly reduced”. In data set [5] (setting [8]), the “serum ALT level” value was “reduced”, the “serum AST level” value was “reduced” and the “serum Crea level” value is given as “reduced”. In addition, in data set [5] (setting [9]), the GLU level entry is “significantly reduced”, the HDL-C level entry is “significantly reduced”, the LDL-C level entry was “significantly reduced” and the TG level entry is “significantly reduced”. In addition, in data set [6], the “CLS formation in AT” value was “reduced” and the “macrophage infiltration in AT” value is listed as “reduced”. Besides, in data set [7] (HFD+PLA2 group vs HFD group), the UCP-1 expression entry is reported as “significantly increased”. In data set [7] (setting [10]), the IL-1β expression entry is reported as “inhibited to levels similar to those in ND”, the IL-12a expression entry is listed as “inhibited to levels similar to those in ND” and the TNF-α expression result was “inhibited to levels similar to those in ND”. In data set [7] (setting [11]), the CD206 expression entry was “significantly increased” and the IL-4 expression result was “significantly increased”. Besides, in data set [7] (setting [12]), the C/EBPα expression result was “inhibited” and the PPARγ expression result was “inhibited”. In addition, in the data set with mice of the HFD group, the body weight change entry is “decrease in body weight”.

Take mellitin [reference compound]: the body weight change result with mice of the HFD group was “increase in body weight”.
